Measurements from patent US6337317B1, “Antimicrobial peptides and methods of use thereof” (priority 2000, dated 2002).
Where a SMILES comes first, the peptide text is derived from it.

Legend:
Human Red Blood Cells = test: Hemolytic assay; type: cell-based
Protocol: The toxicity of invention peptides can be assessed using a hemolytic assay in which the ability of the peptides to lyse human red blood cells is assessed (Zhang et al. (1999) Biochemistry 38:8102-8111; and Examples section).
Hemolytic activity of invention peptides was tested against human red blood cells. Freshly collected human blood treated with heparin was centrifuged to remove the buffy coat, and the erythrocytes thereby obtained were washed three times in saline (0.85% NaCl). Serial dilutions of the peptides in saline were prepared in round-bottomed microtiter plates using total volumes of 100 μl. Red blood cells were diluted with saline to 1/25 of a packed cell volume, and 50 μl of cells were added to each well. Plates, while rocking, were incubated at 37° C., and the concentration of the peptide required for lysis after 4 h was taken as the minimal hemolytic concentration.

E. coli KF130 = type: cell-based, Escherichia coli
Protocol: (§1) The biological activity of the peptides can be determined by standard methods known to those of skill in the art, such as a “minimal inhibitory concentration” (MIC) assay (see Wu and Hancock (1999) J. Biol Chem. 274:29-35 and Examples section). A MIC assay allows the determination of the lowest concentration of peptide that inhibits the multiplication and growth of mircoorganisms. Changes in the microorganism population are assessed by measuring the optical density (OD) of the population in broth or medium. Peptide MIC's can be determined for a variety of micoorganisms under a variety of conditions. Another assay for the biological activity of the peptides is a “fractional inhibitory concentration” (FIC) assay. This assay is especially useful for determining synergistic effects between the peptides of the invention, and between invention peptides and other compounds such as known antibiotics. A FIC assay employs the strategy of a MIC assay with additional variable(s), e.g., known antibiotics. […] The FIC is calculated by looking at the impact of an antibiotic on the MIC of the peptide and the reciprocal relationship. […] As used herein, FIC can be determined as follows: […]
(§2) MIC Assay p The minimum inhibitory concentrations of (MIC) of several invention peptides were determined using methods described elsewhere (Wu and Hancock, (1999) J. Biol Chem. 274:29-35). […]

E. coli DC2 = type: cell-based, Escherichia coli; conditions: E. coli DC2 (outer membrane deficient mutant)
Protocol: as §1, §2

[1] = LPS-induced endotoxemia in galactosamine-sensitized mice; type: in vivo; conditions: 200 μg peptide intraperitoneally, groups of 10 mice, up to 24 h
Protocol: Bacterial endotoxin (LPS) is highly toxic and can cause high mortality in both humans and animals when released during Gram-negative bacterial infection. Galactosamine-treated mice exposed to moderate does of endotoxin typically die from endotoxic shock within 17 hours following exposure. Invention peptides can be tested for their ability to protect mice against endotoxin-induced death (see Examples section). The anti-endotoxic activity of invention peptides also can be tested in an in vitro assay using a macrophage cell line (Gough et al. (1996) Infect. Immun. 64:4922-4927; and Examples section).
The ability of invention peptides to protect against LPS-induced endotoxemia was assessed in vivo. Mice (8-10 weeks old) were injected intraperitoneally with […] D-galactosamine (Dgal) to sensitize them to LPS according to the method of Galanos (Galanos et al. (1979) Proc. Natl. Acad. Sci., USA, 76:5939-5943). Endotoxic shock was induces by intraperitoneal injections of 3 μg/mL E. coli 111 :B4 LPS in phosphate-buffered saline (PBS). Invention peptides (200 μg/100 μl sterile water) were injected intraperitoneally at a separate site within 10 min of LPS injection, and survival was monitored up to 24 h following injection.

P. aeruginosa M2 = test: P. aeruginosa infection in neutropenic mouse model; type: in vivo; conditions: neutropenic CD-1 mice
Protocol: Invention peptides were assayed for their ability to protect against P. aeruginosa infection in a neutropenic mouse mode. Female CD-1 mice, made neutropenic by three injections of cyclophosphamide (see Gough et al., (1996) Infect. Immun. 64:4922-4927) were injected intraperitoneally with a 100% lethal dose of P. aeruginosa M2 (approximately 200 organisms). Thirty minutes later, mice were injected intraperitoneally with invention peptides (200 μg/100 μl) Survival was assessed 24 to 72 hours later.

CC(C)[C@@H]1NC(=O)[C@H](CCCNC(=N)N)NC(=O)[C@H](Cc2ccccc2)NC(=O)[C@@H](NC(=O)[C@H](Cc2c[nH]c3ccccc23)NC(=O)[C@H](CCCNC(=N)N)NC(=O)[C@@H](N)CCCNC(=N)N)CSSC[C@@H](C(=O)N[C@@H](CCCNC(=N)N)C(N)=O)NC(=O)[C@H](CCCCN)NC(=O)[C@H](CCCNC(=N)N)NC(=O)[C@H](Cc2ccc(O)cc2)NC(=O)[C@@H]2CSSC[C@H](NC1=O)C(=O)N[C@@H](Cc1ccc(O)cc1)C(=O)N[C@@H](CCCNC(=N)N)C(=O)NCC(=O)N[C@@H](Cc1ccccc1)C(=O)N2 [Polyphemusin I] (HELM PEPTIDE1{R.R.W.C.F.R.V.C.Y.R.G.F.C.Y.R.K.C.R.[am]}$PEPTIDE1,PEPTIDE1,4:R3-17:R3|PEPTIDE1,PEPTIDE1,8:R3-13:R3$$$V2.0; N-terminus and C-terminus assumed)
minimal hemolytic concentration (printed under MIC head) (Human Red Blood Cells; Human Red Blood Cells, lysis after 4 h at 37° C.): 21.3 mg/L | hemolytic activity (Human Red Blood Cells; red blood cells): show hemolytic activity | MIC (E. coli KF130): 0.125 mg/L | MIC (E. coli DC2): 0.125 mg/L | Survival (%), LPS-Endotoxemia [1]: 10% | Mean Time to Death (P. aeruginosa M2; 200 μg peptide intraperitoneally 30 min after infection): 52 h | Survival (%), P. aeruginosa infection (P. aeruginosa M2; 200 μg peptide intraperitoneally, groups of 5 mice, assessed 24 to 72 hours): 20%
